Test results taken from article doi:10.1101/2021.02.22.432362v1 (biorxiv, 2021).
Where two headings read alike, the source gives them in different places. Values belong to the compound of their own block, whether it stands above or below them.

Legend:
BRD9 [1] = biological target: BRD9 (Homo sapiens, UniProt Q9H8M2); test: AlphaScreen tracer competition; assay type: binding
Target sequence in this assay (Q9H8M2 134-239 limits assumed): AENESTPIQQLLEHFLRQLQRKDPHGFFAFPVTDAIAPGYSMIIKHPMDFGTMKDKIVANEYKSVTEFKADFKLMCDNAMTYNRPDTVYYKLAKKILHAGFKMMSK

BRD8(1) = BRD8(1) (Homo sapiens, UniProt Q9H0E9); test: AlphaScreen biotin-tracer competition; assay type: binding
ATAD2A = ATAD2A (Homo sapiens, UniProt Q6PL18); test: biochemical; settings: read-out: % Ctrl (1 uM)
Sequence of ATAD2A (Q6PL18 whole entry): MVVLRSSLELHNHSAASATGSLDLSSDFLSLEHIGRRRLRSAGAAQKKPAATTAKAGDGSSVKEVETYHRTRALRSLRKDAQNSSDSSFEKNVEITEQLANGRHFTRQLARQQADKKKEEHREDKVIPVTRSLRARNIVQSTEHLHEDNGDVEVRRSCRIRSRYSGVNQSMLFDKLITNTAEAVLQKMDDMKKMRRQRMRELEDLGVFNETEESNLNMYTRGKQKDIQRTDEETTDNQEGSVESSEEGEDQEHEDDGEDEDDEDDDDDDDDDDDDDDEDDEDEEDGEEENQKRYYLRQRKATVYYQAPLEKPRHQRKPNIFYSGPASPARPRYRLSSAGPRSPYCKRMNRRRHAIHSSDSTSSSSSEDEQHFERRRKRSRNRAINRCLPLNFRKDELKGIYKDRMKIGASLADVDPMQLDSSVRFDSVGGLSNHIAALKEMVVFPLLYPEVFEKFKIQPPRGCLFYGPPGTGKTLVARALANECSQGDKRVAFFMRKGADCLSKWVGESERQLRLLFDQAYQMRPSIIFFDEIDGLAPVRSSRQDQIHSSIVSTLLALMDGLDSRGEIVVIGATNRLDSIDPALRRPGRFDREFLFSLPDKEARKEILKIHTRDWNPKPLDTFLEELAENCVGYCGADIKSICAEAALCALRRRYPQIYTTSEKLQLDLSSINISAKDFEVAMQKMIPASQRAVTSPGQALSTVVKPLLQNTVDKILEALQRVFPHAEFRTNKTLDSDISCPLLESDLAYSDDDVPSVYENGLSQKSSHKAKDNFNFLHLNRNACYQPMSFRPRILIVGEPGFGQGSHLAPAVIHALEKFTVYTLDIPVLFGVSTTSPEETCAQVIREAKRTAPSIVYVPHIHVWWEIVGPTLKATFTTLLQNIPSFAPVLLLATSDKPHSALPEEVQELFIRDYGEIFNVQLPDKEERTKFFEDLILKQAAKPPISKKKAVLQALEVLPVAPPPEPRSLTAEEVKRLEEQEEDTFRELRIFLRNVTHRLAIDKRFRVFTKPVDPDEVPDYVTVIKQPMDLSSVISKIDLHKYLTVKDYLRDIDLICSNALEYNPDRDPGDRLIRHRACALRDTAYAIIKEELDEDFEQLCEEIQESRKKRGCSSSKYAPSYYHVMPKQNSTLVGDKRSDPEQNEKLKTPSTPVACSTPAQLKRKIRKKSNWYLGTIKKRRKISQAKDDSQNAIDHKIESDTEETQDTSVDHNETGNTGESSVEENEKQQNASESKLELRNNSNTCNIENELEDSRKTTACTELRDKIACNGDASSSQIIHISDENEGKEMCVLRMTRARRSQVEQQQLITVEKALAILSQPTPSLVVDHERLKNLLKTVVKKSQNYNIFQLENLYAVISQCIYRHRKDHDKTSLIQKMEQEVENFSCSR

ATAD2B = ATAD2B (Homo sapiens, UniProt Q9ULI0); test: biochemical; settings: read-out: % Ctrl (1 uM)
BAZ2A = BAZ2A (Homo sapiens, UniProt Q9UIF9); test: biochemical; settings: read-out: % Ctrl (1 uM)
BAZ2B = BAZ2B (Homo sapiens, UniProt Q9UIF8); test: biochemical; settings: read-out: % Ctrl (1 uM)
BRD1 = BRD1 (Homo sapiens, UniProt O95696); test: biochemical; settings: read-out: % Ctrl (1 uM)
BRD2(1) = BRD2(1) (Homo sapiens, UniProt P25440); test: biochemical; settings: read-out: % Ctrl (1 uM)
BRD2(2) = BRD2(2) (Homo sapiens, UniProt P25440); test: biochemical; settings: read-out: % Ctrl (1 uM)
BRD3(1) = BRD3(1) (Homo sapiens, UniProt Q15059); test: biochemical; settings: read-out: % Ctrl (1 uM)
BRD3(2) = BRD3(2) (Homo sapiens, UniProt Q15059); test: biochemical; settings: read-out: % Ctrl (1 uM)
BRD4(1) = BRD4(1) (Homo sapiens, UniProt O60885); test: biochemical; settings: read-out: % Ctrl (1 uM)
BRD4(2) = BRD4(2) (Homo sapiens, UniProt O60885); test: biochemical; settings: read-out: % Ctrl (1 uM)
BRD7 = BRD7 (Homo sapiens, UniProt Q9NPI1); test: biochemical; settings: read-out: % Ctrl (1 uM)
Sequence of BRD7 (Q9NPI1 whole entry): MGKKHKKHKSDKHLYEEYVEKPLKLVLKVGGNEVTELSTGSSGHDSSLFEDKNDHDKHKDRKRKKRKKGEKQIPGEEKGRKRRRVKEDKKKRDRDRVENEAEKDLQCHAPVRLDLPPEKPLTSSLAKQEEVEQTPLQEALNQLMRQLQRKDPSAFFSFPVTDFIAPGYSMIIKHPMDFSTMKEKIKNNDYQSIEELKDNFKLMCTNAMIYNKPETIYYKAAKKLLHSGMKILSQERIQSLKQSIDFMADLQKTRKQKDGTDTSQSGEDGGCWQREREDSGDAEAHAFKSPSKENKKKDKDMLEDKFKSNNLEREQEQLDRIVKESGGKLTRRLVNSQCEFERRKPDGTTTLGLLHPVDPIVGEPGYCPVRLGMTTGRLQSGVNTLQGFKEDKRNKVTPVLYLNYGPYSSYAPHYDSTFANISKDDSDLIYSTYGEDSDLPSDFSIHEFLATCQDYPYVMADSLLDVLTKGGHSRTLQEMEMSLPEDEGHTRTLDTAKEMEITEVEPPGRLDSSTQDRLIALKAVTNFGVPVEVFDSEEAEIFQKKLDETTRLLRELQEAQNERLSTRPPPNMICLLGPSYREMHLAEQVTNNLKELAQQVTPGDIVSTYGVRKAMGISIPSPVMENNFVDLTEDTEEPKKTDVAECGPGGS

BRD9 [2] = biological target: BRD9 (Homo sapiens, UniProt Q9H8M2); test: biochemical; settings: read-out: % Ctrl (1 uM)
BRDT(1) = BRDT(1) (Homo sapiens, UniProt Q58F21); test: biochemical; settings: read-out: % Ctrl (1 uM)
BRDT(2) = BRDT(2) (Homo sapiens, UniProt Q58F21); test: biochemical; settings: read-out: % Ctrl (1 uM)
BRPF1 = BRPF1 (Homo sapiens, UniProt P55201); test: biochemical; settings: read-out: % Ctrl (1 uM)
BRPF3 = BRPF3 (Homo sapiens, UniProt Q9ULD4); test: biochemical; settings: read-out: % Ctrl (1 uM)
CECR2 = CECR2 (Homo sapiens, UniProt Q9BXF3); test: biochemical; settings: read-out: % Ctrl (1 uM)
CREBBP = CREBBP (Homo sapiens, UniProt Q92793); test: biochemical; settings: read-out: % Ctrl (1 uM)
EP300 = EP300 (Homo sapiens, UniProt Q09472); test: biochemical; settings: read-out: % Ctrl (1 uM)
FALZ = FALZ (Homo sapiens, UniProt Q12830); test: biochemical; settings: read-out: % Ctrl (1 uM)
GCN5L2 = GCN5L2 (Homo sapiens, UniProt Q92830); test: biochemical; settings: read-out: % Ctrl (1 uM)
Sequence of GCN5L2 (Q92830 whole entry): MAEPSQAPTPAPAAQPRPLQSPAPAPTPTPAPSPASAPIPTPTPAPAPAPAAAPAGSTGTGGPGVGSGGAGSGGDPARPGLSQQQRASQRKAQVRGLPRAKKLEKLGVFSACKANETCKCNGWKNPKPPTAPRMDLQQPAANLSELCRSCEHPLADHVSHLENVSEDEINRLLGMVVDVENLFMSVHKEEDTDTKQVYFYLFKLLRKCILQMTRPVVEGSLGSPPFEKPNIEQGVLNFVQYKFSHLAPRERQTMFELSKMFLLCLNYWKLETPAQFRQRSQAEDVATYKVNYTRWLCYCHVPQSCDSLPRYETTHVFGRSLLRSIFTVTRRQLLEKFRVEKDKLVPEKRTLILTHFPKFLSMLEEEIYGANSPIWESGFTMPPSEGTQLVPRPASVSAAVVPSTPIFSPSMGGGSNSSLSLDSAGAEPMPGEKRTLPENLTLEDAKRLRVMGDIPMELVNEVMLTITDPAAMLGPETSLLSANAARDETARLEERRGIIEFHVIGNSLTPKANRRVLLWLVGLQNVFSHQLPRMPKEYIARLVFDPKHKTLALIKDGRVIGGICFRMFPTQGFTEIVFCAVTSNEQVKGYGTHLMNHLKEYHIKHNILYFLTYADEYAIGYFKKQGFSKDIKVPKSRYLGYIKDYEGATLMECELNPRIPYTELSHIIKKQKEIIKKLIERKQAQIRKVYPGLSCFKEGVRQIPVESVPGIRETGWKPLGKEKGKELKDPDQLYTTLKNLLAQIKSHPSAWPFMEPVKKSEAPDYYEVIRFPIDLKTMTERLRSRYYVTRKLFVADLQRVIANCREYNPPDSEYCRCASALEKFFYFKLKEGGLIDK

PBRM1(2) = PBRM1(2) (Homo sapiens, UniProt Q86U86); test: biochemical; settings: read-out: % Ctrl (1 uM)
PBRM1(5) = PBRM1(5) (Homo sapiens, UniProt Q86U86); test: biochemical; settings: read-out: % Ctrl (1 uM)
PCAF = PCAF (Homo sapiens, UniProt Q92831); test: biochemical; settings: read-out: % Ctrl (1 uM)
SMARCA2 = SMARCA2 (Homo sapiens, UniProt P51531); test: biochemical; settings: read-out: % Ctrl (1 uM)
SMARCA4 = SMARCA4 (Homo sapiens, UniProt P51532); test: biochemical; settings: read-out: % Ctrl (1 uM)
TAF1(2) = TAF1(2) (Homo sapiens, UniProt P21675); test: biochemical; settings: read-out: % Ctrl (1 uM)
Sequence of TAF1(2) (P21675 whole entry): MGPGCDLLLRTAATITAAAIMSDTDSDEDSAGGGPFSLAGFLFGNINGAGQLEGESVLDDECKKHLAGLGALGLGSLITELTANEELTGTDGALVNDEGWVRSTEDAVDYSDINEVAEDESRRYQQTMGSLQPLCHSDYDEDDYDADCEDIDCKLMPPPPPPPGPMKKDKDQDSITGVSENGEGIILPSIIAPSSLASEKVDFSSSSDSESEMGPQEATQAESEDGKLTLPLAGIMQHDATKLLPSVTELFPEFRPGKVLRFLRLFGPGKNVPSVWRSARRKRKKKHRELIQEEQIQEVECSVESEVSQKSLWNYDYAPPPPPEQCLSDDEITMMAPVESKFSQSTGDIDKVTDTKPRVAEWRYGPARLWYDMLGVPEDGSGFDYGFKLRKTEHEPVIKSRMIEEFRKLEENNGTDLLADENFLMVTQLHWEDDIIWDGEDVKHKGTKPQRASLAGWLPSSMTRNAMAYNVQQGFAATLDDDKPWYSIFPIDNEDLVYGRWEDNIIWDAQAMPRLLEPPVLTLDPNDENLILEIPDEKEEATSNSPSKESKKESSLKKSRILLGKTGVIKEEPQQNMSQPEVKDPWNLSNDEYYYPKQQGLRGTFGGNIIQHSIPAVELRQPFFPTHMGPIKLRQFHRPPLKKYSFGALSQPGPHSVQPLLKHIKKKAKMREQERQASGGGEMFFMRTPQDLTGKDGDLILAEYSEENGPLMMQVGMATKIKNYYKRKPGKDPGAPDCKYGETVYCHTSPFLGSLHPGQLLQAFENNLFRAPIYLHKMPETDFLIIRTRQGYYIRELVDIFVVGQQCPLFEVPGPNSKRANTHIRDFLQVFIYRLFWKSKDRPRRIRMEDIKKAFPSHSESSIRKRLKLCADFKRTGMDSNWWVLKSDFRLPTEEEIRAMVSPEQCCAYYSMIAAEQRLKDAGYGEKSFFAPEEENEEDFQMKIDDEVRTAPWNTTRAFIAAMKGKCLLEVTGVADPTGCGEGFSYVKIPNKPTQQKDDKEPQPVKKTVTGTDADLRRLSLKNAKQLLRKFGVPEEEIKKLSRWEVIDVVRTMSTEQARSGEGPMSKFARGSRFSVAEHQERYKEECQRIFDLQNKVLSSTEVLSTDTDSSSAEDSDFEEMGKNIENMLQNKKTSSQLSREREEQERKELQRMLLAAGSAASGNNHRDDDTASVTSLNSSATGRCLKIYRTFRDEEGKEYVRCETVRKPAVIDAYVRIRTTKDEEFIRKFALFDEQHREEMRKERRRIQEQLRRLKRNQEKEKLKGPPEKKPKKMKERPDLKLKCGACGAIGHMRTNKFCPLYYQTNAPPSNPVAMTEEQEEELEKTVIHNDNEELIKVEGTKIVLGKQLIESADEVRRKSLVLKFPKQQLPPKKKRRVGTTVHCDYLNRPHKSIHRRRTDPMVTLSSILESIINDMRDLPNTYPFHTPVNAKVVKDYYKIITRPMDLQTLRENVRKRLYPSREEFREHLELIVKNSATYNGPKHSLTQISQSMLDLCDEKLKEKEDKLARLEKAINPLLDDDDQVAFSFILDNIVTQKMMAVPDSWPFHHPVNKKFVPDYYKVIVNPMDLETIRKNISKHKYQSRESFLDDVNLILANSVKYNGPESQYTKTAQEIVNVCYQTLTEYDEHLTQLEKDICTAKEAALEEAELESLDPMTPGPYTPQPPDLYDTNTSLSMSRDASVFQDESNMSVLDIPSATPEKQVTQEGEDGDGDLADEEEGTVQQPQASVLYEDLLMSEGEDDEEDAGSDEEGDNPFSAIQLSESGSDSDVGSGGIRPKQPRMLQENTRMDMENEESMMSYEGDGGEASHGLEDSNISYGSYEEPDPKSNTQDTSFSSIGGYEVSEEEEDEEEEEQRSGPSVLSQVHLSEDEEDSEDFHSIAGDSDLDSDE

TAF1L(2) = TAF1L(2) (Homo sapiens, UniProt Q8IZX4); test: biochemical; settings: read-out: % Ctrl (1 uM)
TRIM24(PHD,Bromo.) = TRIM24(PHD,Bromo.) (Homo sapiens, UniProt O15164); test: biochemical; settings: read-out: % Ctrl (1 uM)
Trim33(PHD,Bromo.) = Trim33(PHD,Bromo.) (Homo sapiens, UniProt Q9UPN9); test: biochemical; settings: read-out: % Ctrl (1 uM)
WDR9(2) = WDR9(2) (Homo sapiens, UniProt Q9NSI6); test: biochemical; settings: read-out: % Ctrl (1 uM)

Sequence of BRD8(1) (Q9H0E9 706-811 limits assumed): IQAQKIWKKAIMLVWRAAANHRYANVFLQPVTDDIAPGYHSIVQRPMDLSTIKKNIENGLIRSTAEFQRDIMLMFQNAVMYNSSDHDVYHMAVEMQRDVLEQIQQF

IC50 (BRD9 [1]): > 10000 nM
Structure (SMILES): COc1ccc2ccccc2c1-c1cn(C)c(=O)c2cnccc12 [compound 2]

IC50 (BRD8(1); tracer: compound 1-biotin): 970 nM
Structure (SMILES): COc1cc(-c2cn(C)c(=O)c3cnccc23)c(OC)cc1CN(C)C [BI-9564]

remaining activity at 1 µM (ATAD2A): 100%
remaining activity at 1 µM (ATAD2B): 79%
remaining activity at 1 µM (BAZ2A): 69%
remaining activity at 1 µM (BAZ2B): 84%
remaining activity at 1 µM (BRD1): 89%
remaining activity at 1 µM (BRD2(1)): 72%
remaining activity at 1 µM (BRD2(2)): 89%
remaining activity at 1 µM (BRD3(1)): 76%
remaining activity at 1 µM (BRD3(2)): 75%
remaining activity at 1 µM (BRD4(1)): 88%
remaining activity at 1 µM (BRD4(2)): 94%
remaining activity at 1 µM (BRD7): 91%
remaining activity at 1 µM (BRD9 [2]): 80%
remaining activity at 1 µM (BRDT(1)): 88%
remaining activity at 1 µM (BRDT(2)): 88%
remaining activity at 1 µM (BRPF1): 65%
remaining activity at 1 µM (BRPF3): 94%
remaining activity at 1 µM (CECR2): 74%
remaining activity at 1 µM (CREBBP): 9.2%
remaining activity at 1 µM (EP300): 8.4%
remaining activity at 1 µM (FALZ): 82%
remaining activity at 1 µM (GCN5L2): 86%
remaining activity at 1 µM (PBRM1(2)): 85%
remaining activity at 1 µM (PBRM1(5)): 87%
remaining activity at 1 µM (PCAF): 69%
remaining activity at 1 µM (SMARCA2): 74%
remaining activity at 1 µM (SMARCA4): 71%
remaining activity at 1 µM (TAF1(2)): 79%
remaining activity at 1 µM (TAF1L(2)): 91%
remaining activity at 1 µM (TRIM24(PHD,Bromo.)): 90%
remaining activity at 1 µM (Trim33(PHD,Bromo.)): 92%
remaining activity at 1 µM (WDR9(2)): 88%
Structure (SMILES): COc1cc(CN2CC(N)C2)cc(OC)c1-c1cn(C)c(=O)c2cc(F)ccc12 [DN02]

IC50 (BRD9 [1]): > 10000 nM
IC50 (BRD8(1)): 85 nM
Structure (SMILES): COc1cc(CN(C)C)cc(OC)c1-c1cn(C)c(=O)c2cnccc12 [compound 3]

IC50 (BRD8(1); tracer: compound 1-biotin): less potently by I-BRD9 and BI-7273
Structure (SMILES): COc1cc(-c2cn(C)c(=O)c3cnccc23)cc(OC)c1CN(C)C [BI-7273]
